Test results from the NIST ThermoML archive (doi:10.1016/j.fluid.2015.04.031).
Numbers after ± are expanded uncertainties.

Settings: Liquid; for mass density: 101.33 kPa, Vibrating tube method; for vapor or sublimation pressure: Closed cell (Static) method

Row | SMILES | mass density (298.15 K) [kg/m3] | vapor or sublimation pressure (293.15 K) [kPa] | vapor or sublimation pressure (298.15 K) [kPa] | vapor or sublimation pressure (303.15 K) [kPa] | vapor or sublimation pressure (308.15 K) [kPa] | vapor or sublimation pressure (313.15 K) [kPa]
1 | CCCC[N+]1(C)CCCC1.N#CC(=C=[N-])C#N [1-butyl-1-methylpyrrolidinium tricyanomethanide] | 1006.75 ± 1.1 |  |  |  |  | 
2 | CCCC[n+]1ccc(C)cc1.N#CC(=C=[N-])C#N [1-butyl-4-methylpyridinium tricyanomethanide] | 1036.62 ± 1.2 |  |  |  |  | 
3 | c1ccncc1 [pyridine] | 982.85 ± 0.11 | 2.1 ± 0.1 | 2.77 ± 0.11 | 3.62 ± 0.11 | 4.68 ± 0.11 | 6 ± 0.11
4 | c1ccsc1 [thiophene] | 1058.56 ± 0.12 | 8.19 ± 0.13 | 10.4 ± 0.14 | 12.97 ± 0.15 | 16.1 ± 0.17 | 19.4 ± 0.17
